Target: Bruton's Tyrosine Kinase (inactivated state) (Homo sapiens (Human), UniProt Q06187)
Experiment: Bruton's Tyrosine Kinase (BTK) Inhibition TR-FRET (Time Resolved FRET) competition assay
Format: binding
Conditions: BTK-Eu / Kinase Tracer 178 competition, incubated 18-24 h at 14° C.
Protocol: Bruton's Tyrosine Kinase (BTK) Inhibition TR-FRET (Time Resolved FRET) Assay
This BTK competition assay measures compound potency (IC50) for the inactivated state of Bruton's Tyrosine Kinase using FRET (Forster/Fluorescence Resonance Energy Transfer) technology. The BTK-Eu complex was incubated on ice one hour prior to use at a starting concentration of 50 nM BTK-Bioease™: 10 nM Eu-streptavidin (Perkin-Elmer Catalog #AD0062). The assay buffer consisted of 20 mM HEPES (pH 7.15), 0.1 mM DTT, 10 mM MgCl2, 0.5 mg/ml BSA with 3% Kinase Stabilizer (Fremont Biosolutions, Catalog #STB-K02). After 1 h, the reaction mixture from above was diluted 10 fold in assay buffer to make 5 nM BTK: 1 nM Eu-Streptavidin complex (donor fluorophore). 18 μl of a mixture of 0.11 nM BTK-Eu and 0.11 nM Kinase Tracer 178 (Invitrogen, Catalog #PV5593,) with BTK-Eu alone as no negative control, was then dispensed into 384-well flat bottom plates (Greiner, 784076). Compounds to be tested in assay were prepared as 10× concentrations and serial dilution in half-log increments was performed in DMSO so as to generate 10 point curves. To initiate the FRET reaction, compounds prepared as 10× stock in DMSO was added to the plates and the plates were incubated 18-24 h at 14° C.
After the incubation the plates were read on a BMG Pherastar Fluorescent plate reader (or equivalent) and used to measure the emission energy from the europium donor fluorophore (620 nm emission) and the FRET (665 nm emission). The negative control well values were averaged to obtain the mean minimum. The positive “no inhibitor” control wells were averaged to obtain the mean maximum. Percent of maximal FRET was calculated using following equation: % max FRET=100×[(FSRcmpd−FSRmean min)/(FSRmean max−FSRmean min)]
where FSR=FRET Signal ratio. % Max FRET curves were plotted in Activity Base (Excel) and the IC50(%), hill slope, z′ and % CV were determined. The mean IC50 and standard deviation will be derived from duplicate curves (singlet inhibition curves from two independent dilutions) using Microsoft Excel.
Representative compound data for this assay are listed below in Table II.

Bruton's Tyrosine Kinase (inactivated state), sequence (Q06187 whole entry): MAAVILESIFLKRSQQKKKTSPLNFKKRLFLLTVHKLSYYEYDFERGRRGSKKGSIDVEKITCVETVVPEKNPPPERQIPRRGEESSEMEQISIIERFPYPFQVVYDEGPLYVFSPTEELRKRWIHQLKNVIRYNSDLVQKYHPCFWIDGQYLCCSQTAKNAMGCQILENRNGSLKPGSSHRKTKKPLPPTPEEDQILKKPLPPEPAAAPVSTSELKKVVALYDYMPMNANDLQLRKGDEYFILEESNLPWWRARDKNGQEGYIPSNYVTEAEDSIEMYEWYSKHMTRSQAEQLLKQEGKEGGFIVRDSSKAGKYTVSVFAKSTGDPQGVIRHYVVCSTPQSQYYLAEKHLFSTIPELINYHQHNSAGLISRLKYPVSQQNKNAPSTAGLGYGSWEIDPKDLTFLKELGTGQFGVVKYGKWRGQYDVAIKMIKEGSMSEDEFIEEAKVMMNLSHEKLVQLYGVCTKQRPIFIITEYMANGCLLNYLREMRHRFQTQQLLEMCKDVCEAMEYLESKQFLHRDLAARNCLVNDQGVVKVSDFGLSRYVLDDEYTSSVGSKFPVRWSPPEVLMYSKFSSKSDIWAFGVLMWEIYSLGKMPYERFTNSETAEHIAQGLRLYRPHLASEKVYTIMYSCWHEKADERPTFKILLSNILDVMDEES

| Structure (SMILES) | IC50 |
| --- | --- |
| CC(C)(C)c1cc(F)c2c(=O)n(Cc3ccc(-c4cc[nH]c(=O)c4)cc3CO)ncc2c1 [Compound I-5, 6-tert-Butyl-8-fluoro-2-[2-hydroxymethyl-4-(2-oxo-1,2-dihydro-pyridin-4-yl)-benzyl]-2H-phthalazin-1-one] | 3.14 µM |
| CC(C)(C)c1cc(F)c2c(=O)n(Cc3ccc(-c4cc[nH]c(=O)c4)cc3)ncc2c1 [Compound I-1, 6-tert-Butyl-8-fluoro-2-[4-(2-oxo-1,2-dihydro-pyridin-4-yl)-benzyl]-2H-phthalazin-1-one] | 3.32 µM |
| Cn1cc(-c2cc(-c3ccc(Cn4ncc5cc(C(C)(C)C)cc(F)c5c4=O)c(F)c3)cc(=O)[nH]2)cn1 [Compound I-6, 6-tert-Butyl-8-fluoro-2-{2-fluoro-4-[6-(1-methyl-1H-pyrazol-4-yl)-2-oxo-1,2-dihydro-pyridin-4-yl]-benzyl}-2H-phthalazin-1-one] | 0.0142 µM |
| CC(C)(C)c1cc(F)c2c(=O)n(-c3cccc(-c4cc[nH]c(=O)c4)c3CO)ncc2c1 [Compound I-3, 6-tert-Butyl-8-fluoro-2-[2-hydroxymethyl-3-(2-oxo-1,2-dihydro-pyridin-4-yl)-phenyl]-2H-phthalazin-1-one] | 0.366 µM |
| CC(C)(C)c1cc(F)c2c(=O)n(Cc3ccc(-c4cc[nH]c(=O)c4)c(CO)c3)ncc2c1 [Compound I-8, 6-tert-Butyl-8-fluoro-2-[3-hydroxymethyl-4-(2-oxo-1,2-dihydro-pyridin-4-yl)-benzyl]-2H-phthalazin-1-one] | > 100 µM |
| CC(C)(C)c1cc(F)c2c(=O)n(Cc3c(F)cc(-c4cc[nH]c(=O)c4)cc3F)ncc2c1 [Compound I-4, 6-tert-Butyl-2-[2,6-difluoro-4-(2-oxo-1,2-dihydro-pyridin-4-yl)-benzyl]-8-fluoro-2H-phthalazin-1-one] | 13.3 µM |
| CC(C)(C)c1cc(F)c2c(=O)n(Cc3ccc(-c4cc[nH]c(=O)c4)cc3F)ncc2c1 [Compound I-2, 6-tert-Butyl-8-fluoro-2-[2-fluoro-4-(2-oxo-1,2-dihydro-pyridin-4-yl)-benzyl]-2H-phthalazin-1-one] | 0.983 µM |
| Cc1c(NC(=O)c2ccc(C(C)(C)C)cc2)cccc1-c1cc[nH]c(=O)c1 [Compound I-7, 4-tert-Butyl-N-[2-methyl-3-(2-oxo-1,2-dihydro-pyridin-4-yl)-phenyl]-benzamide] | 6.91 µM |
| Cn1cc(-c2cc(-c3ccc(CN4Cc5cc(C(C)(C)C)sc5C4=O)c(F)c3)cc(=O)[nH]2)cn1 [Compound I-10, 2-tert-Butyl-5-{2-fluoro-4-[6-(1-methyl-1H-pyrazol-4-yl)-2-oxo-1,2-dihydro-pyridin-4-yl]-benzyl}-4,5-dihydro-thieno[2,3-c]pyrrol-6-one] | 0.00711 µM |
| CC(C)(C)c1cc(F)c2c(=O)n(Cc3cc(CO)c(-c4cc[nH]c(=O)c4)cc3F)ncc2c1 [Compound I-9, 6-tert-Butyl-8-fluoro-2-[2-fluoro-5-hydroxymethyl-4-(2-oxo-1,2-dihydro-pyridin-4-yl)-benzyl]-2H-phthalazin-1-one] | 52.3 µM |
